In a melting point compilation (Tetko et al.; mined from patent text by program, amines drawn as free bases though some values may be those of a salt):

melting point | Compound
132 to 135 °C | Clc1ccc(OC(C(OCc2ccc(Cl)cc2Cl)c2ccc(Cl)cc2Cl)n2cncn2)cc1 (stereo not given)
178 to 181 °C | O=C(O)c1ccccc1C(=O)c1ccc(Cl)cc1Cl
170 °C | COc1cc(OC)c2c(c1)OC(C(C)(C)C#N)CC2=O (stereo not given)
255 to 257 °C | Cc1cc(Cn2cncn2)cc2c1Cc1c(-c3ccsc3)n[nH]c1-2
195 to 196 °C | Nc1cc(=O)n(Cc2cc(Cl)ccc2Cl)[nH]1
124 to 126 °C | Cc1sc(C)c(CC#N)c1CC#N
61 to 62 °C | Cn1nc(-c2ccccc2)cc1Cl
148 to 149 °C | COc1ccc2nc3ccc(OC)cc3c(Nc3cccc(COC(=O)NC(C)C)c3)c2c1
100 to 103 °C | OCCNc1nnc(-c2ccc(F)c(F)c2Nc2ccc(I)cc2F)o1
357 °C | CCOC(=O)c1cc2c(ccc3nc(O)c(O)nc32)s1
> 320 °C | O=C(CCN1CCCC1)Nc1ccc2[nH]c3ccc(NC(=O)CCN4CCCC4)cc3c(=O)c2c1
92 °C | Cc1ccc(-c2ccc(S(=O)(=O)N3c4ccccc4CC3C(=O)NCCOc3ccc(CC(=O)O)cc3)cc2C(F)(F)F)cc1 (stereo not given)
91 to 92 °C | COC(=O)C1CCC(=O)N1C(=O)Nc1ccccc1 (stereo not given)
145 °C | COC1(C)C(=O)C(c2ccccc2)=C1c1ccc(S(C)(=O)=O)cc1 (stereo not given)
101 to 103 °C | CNS(=O)(=O)c1sccc1C(C)=O

Further lines, the compound ahead of its results:

Compound | melting point
N#Cc1ccc(C(=O)CC2(O)OCCO2)cc1 | 151 to 152 °C
CCC(Cl)(CC)C(CO)N=O (stereo not given) | 130 °C
CC1SC(=O)NN=C1c1ccc2c(c1)CCCN2C(=O)c1ccc2c(c1)OCO2 (single isomer, unassigned; (-)) | 180 °C
O=Cc1cc(-c2ncc(C(F)(F)F)cc2Cl)ccc1Cl | 94 °C
Cc1cccc(N2CCOC2=O)c1CNc1cccn2c(C=O)c(C)nc12 | 196 to 197 °C
CC1(C)CCCC(C)(C)N1Oc1ccc(C(F)(F)F)cc1[N+](=O)[O-] | 54 to 55 °C
Oc1cccc2c1CCCC2CN1CCCCC1 (stereo not given) | 129 to 131 °C
COc1cc(OCC(=O)O)c(C)cc1SCc1ccc(-c2ccc(C(F)(F)F)cc2)cc1 | 170 to 171 °C
COc1ccc2nc3n(c(=O)c2c1OC)CS(=O)(=O)N3 | > 300 °C
CCCn1c(SC)nc2cc(Br)sc2c1=O | 138 to 141 °C
CC(C)n1nc(-c2nc(C(N)=O)c(N)nc2-c2ccccc2Br)ccc1=O | 132 to 135 °C
OC(CCl)CNc1ccc(Cl)c(Cl)c1 (stereo not given) | 51 to 53 °C
O=C(CN1C(=O)CC1S(=O)(=O)c1ccccc1)NCCCCCCc1ccc(Cl)cc1 (single isomer, unassigned; (-)) | 106 to 109 °C
O=C(NCc1ccc(Cl)cc1)c1cn2c3c(cc(CN4CCOCC4)cc3c1=O)CN(Cc1ccccc1)C2=O | 201 to 204 °C
COc1ccc(CSc2ccncc2)c2c1OCC2C (stereo not given) | 110 to 112 °C
CCC1=C(c2cccc(F)c2)C(=O)N(c2cccc(C(F)(F)F)c2)C1 | 77.5 to 79 °C
NCCNC(c1ccccc1)c1ccccc1 | 23 to 24 °C
O=C(Nc1ccc(S(=O)(=O)c2ncccn2)cc1)C(O)(C(F)F)C(F)F | 209 to 210 °C
CCCn1c(=O)c2c(nc(/C=C/c3ccc(OC)c4ccccc34)n2C)n(CCC)c1=O | 213 to 214 °C
Cc1c(C(=O)Nc2ccc(N3CCN(CCOCCO)CC3)c(C#N)c2)cnn1-c1ccc(Cl)cc1 | 196 °C
Nc1c(Cl)ncnc1N[C@@H]1C=C[C@H](CO)C1 | 144 to 146 °C
CC(c1cccnc1)C(O)(Cn1cncn1)c1ccc(F)cc1F (stereo not given) | 113 to 114 °C
O=C(C=P(c1ccccc1)(c1ccccc1)c1ccccc1)CSc1ccccc1 | 132 to 134 °C
COc1c(S(=O)C(F)(F)F)c(C#N)nn1-c1c(Cl)cc(C(F)(F)F)cc1Cl (stereo not given) | 136 to 137 °C
c1ccc2c(c1)CC1=C2CCCC1 | 57 °C
